According to patent US12187713B2, “Immunomodulators, compositions and methods thereof” (Betta Pharmaceuticals Co., Ltd, priority 2019, dated 2025):

Tests used:
[1] = Pharmacokinetic Assay, single oral dose 100 mg/kg (Table 11); format: in vivo; conditions: mouse, C57 female mice, oral (intragastric), plasma
Protocol: Adult C57 female mice were received to single-dose of the test compounds with […], 10% Kolliphor^@HS 15 and 80% saline as excipients, the mice (n=9) were giving oral administration (intragastric administration) with the compounds at a dose of 100 mg/kg. Time of blood collection: 15 min, 30 min, 1 h, 2 h, 4 h, 7 h, 24 h. Approximately 0.1 mL of whole blood was collected from retro-orbital venous plexus of 3 mice at each time point, and placed into tubes that contained K2-EDTA as an anticoagulant. The whole blood was centrifuged at 4° C. and 4000 rpm for 10 min. The plasma was transferred into centrifuge tubes, and stored at −20° C. until being analyzed. Concentrations of test compounds in the plasma samples were analyzed with liquid chromatography-tandem mass spectrometry (LC-MS/MS). Plasma concentration-time data of individual animals was analyzed using Microsoft Excel 2010. Non-compartmental model was introduced in concentration analysis. The pharmacokinetic parameters of the test compounds were calculated using WinNonlin (version 4.1; Pharsight) software.

PD-1/PD-L1 = PD-1/PD-L1 (Homo sapiens (Human), UniProt Q9NZQ7); experiment: PD-1/PD-L1 Binding Assay (Alphascreen)
Chain of PD-1/PD-L1 (Q9NZQ7 19-238): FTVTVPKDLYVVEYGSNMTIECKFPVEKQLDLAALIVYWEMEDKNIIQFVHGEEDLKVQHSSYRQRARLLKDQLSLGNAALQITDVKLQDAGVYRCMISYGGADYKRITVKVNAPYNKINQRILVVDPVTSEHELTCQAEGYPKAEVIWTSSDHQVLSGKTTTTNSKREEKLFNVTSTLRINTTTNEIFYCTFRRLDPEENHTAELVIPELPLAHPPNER
How it was run: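 PD-1/PD-L1 binding detected by anti-6×His acceptor and streptavidin donor beads after 120 min in the dark at 25 °C. Beforehand, the two proteins were incubated 15 min at 25 °C with inhibitor at 0.015–300 nM (1% DMSO). IC50 comes from a log concentration–response curve.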

[2] = Pharmacokinetic Assay, single oral dose 5 mg/kg (Table 12); format: in vivo; conditions: mouse, plasma concentration, C57 female mice, single oral dose 5 mg/kg
How it was run: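 Adult female C57 mice (n=3) got one intragastric dose of 5 mg/kg in 15% DMSO, 10% Kolliphor HS 15, 75% saline. Retro-orbital blood was taken at 30 min, 2 h and 4 h into K2-EDTA. Plasma levels were measured by LC-MS/MS.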

In the case of Cc1c(-c2nc3cc(CN4CCC[C@H]4C(=O)O)c(OC(F)F)cc3o2)cccc1-c1cccc(-c2nc3cc(CN4CCC[C@H]4C(=O)O)c(OC(F)F)cc3o2)c1C [Example 2, (2′S)-(((2,2′-dimethyl-[1,1′-biphenyl]-3,3′-diyl)bis(6-(difluoromethoxy)benzo[d]oxazole-2,5-diyl))bis(methylene))di-L-proline], the AUC [1] is reported as 271 ng·h/mL, the Cmax [1] is reported as 218 ng/mL and the Tmax [1] is reported as 0.5 h. For the same compound, the half-life [1] was 3.3 h and the IC50 (PD-1/PD-L1; numeric values) was 0.2 nM.
Work on COC(=O)[C@@H]1CCCN1Cc1cc2nc(-c3cccc(-c4cccc(-c5nc6cc(CN7CCC[C@H]7C(=O)O)c(OC(F)F)cc6o5)c4C)c3C)oc2cc1OC(F)F [Example 3, ((6-(difluoromethoxy)-2-(3′-(6-(difluoromethoxy)-5-(((S)-2-(methoxycarbonyl)pyrrolidin-1-yl)methyl)benzo[d]oxazol-2-yl)-2,2′-dimethyl-[1,1′-biphenyl]-3-yl)benzo[d]oxazol-5-yl)methyl)-L-proline] yielded an AUC [1] of 461 ng·h/mL, a Cmax [1] of 374 ng/mL and a Tmax [1] of 1 h. The half-life [1] was 0.39 h and the IC50 (PD-1/PD-L1; numeric values) was 89 nM.
With Cc1c(-c2nc3cc(CN4CCC4)c(OC(F)F)cc3o2)cccc1-c1cccc(-c2nc3cc(CN4CCC[C@H]4C(=O)O)c(OC(F)F)cc3o2)c1C [Example 8, ((2-(3′-(5-(azetidin-1-ylmethyl)-6-(difluoromethoxy)benzo[d]oxazol-2-yl)-2,2′-dimethyl-[1,1′-biphenyl]-3-yl)-6-(difluoromethoxy)benzo[d]oxazol-5-yl)methyl)-L-proline] the AUC [1] was 8240 ng·h/mL, the Cmax [1] was 974 ng/mL and the Tmax [1] was 4 h. It also gave a half-life [1] of 3.97 h and an IC50 (PD-1/PD-L1; numeric values) of 0.75 nM.
Cc1c(-c2nc3cc(CN4CCC[C@H]4CO)c(OC(F)F)cc3o2)cccc1-c1cccc(-c2nc3cc(CN4CCC[C@H]4C(=O)O)c(OC(F)F)cc3o2)c1C [Example 12, ((6-(difluoromethoxy)-2-(3′-(6-(difluoromethoxy)-5-(((S)-2-(hydroxymethyl)pyrrolidin-1-yl)methyl)benzo[d]oxazol-2-yl)-2,2′-dimethyl-[1,1′-biphenyl]-3-yl)benzo[d]oxazol-5-yl)methyl)-L-proline] showed an AUC [1] of 14500 ng·h/mL, a Cmax [1] of 1380 ng/mL and a Tmax [1] of 2 h. The half-life [1] was 7.97 h and the IC50 (PD-1/PD-L1; numeric values) was 1.1 nM.
For Cc1c(-c2nc3cc(CN4CCC(O)C4)c(OC(F)F)cc3o2)cccc1-c1cccc(-c2nc3cc(CN4CCC[C@H]4C(=O)O)c(OC(F)F)cc3o2)c1C (stereo partly drawn) [Example 14, ((6-(difluoromethoxy)-2-(3′-(6-(difluoromethoxy)-5-((3-hydroxypyrrolidin-1-yl)methyl)benzo[d]oxazol-2-yl)-2,2′-dimethyl-[1,1′-biphenyl]-3-yl)benzo[d]oxazol-5-yl)methyl)-L-proline], the AUC [1] was 3450 ng·h/mL, the Cmax [1] was 589 ng/mL and the Tmax [1] was 1 h. For the same compound, the half-life [1] was 6.2 h and the IC50 (PD-1/PD-L1; numeric values) was 1.2 nM.
Compound CNCc1cc2nc(-c3cccc(-c4cccc(-c5nc6cc(CN7CCC[C@H]7C(=O)O)c(OC(F)F)cc6o5)c4C)c3C)oc2cc1OC(F)F [Example 15, ((6-(difluoromethoxy)-2-(3′-(6-(difluoromethoxy)-5-((methylamino)methyl)benzo[d]oxazol-2-yl)-2,2′-dimethyl-[1,1′-biphenyl]-3-yl)benzo[d]oxazol-5-yl)methyl)-L-proline] has an AUC [1] of 5710 ng·h/mL, a Cmax [1] of 931 ng/mL and a Tmax [1] of 1 h. For the same compound, the half-life [1] was 9.83 h and the IC50 (PD-1/PD-L1; numeric values) was 0.5 nM.
In the case of Cc1c(-c2nc3cc(CN(C)C)c(OC(F)F)cc3o2)cccc1-c1cccc(-c2nc3cc(CN4CCC[C@H]4C(=O)O)c(OC(F)F)cc3o2)c1C [Example 16, ((6-(difluoromethoxy)-2-(3′-(6-(difluoromethoxy)-5-((dimethylamino)methyl)benzo [d]oxazol-2-yl)-2,2′-dimethyl-[1,1′-biphenyl]-3-yl)benzo[d]oxazol-5-yl)methyl)-L-proline], the AUC [1] is reported as 20900 ng·h/mL, the Cmax [1] is reported as 1470 ng/mL and the Tmax [1] is reported as 4 h. For the same compound, the half-life [1] was 4.8 h and the IC50 (PD-1/PD-L1; numeric values) was 1.1 nM.
In the case of Cc1c(-c2nc3cc(CNC4COC4)c(OC(F)F)cc3o2)cccc1-c1cccc(-c2nc3cc(CN4CCC[C@H]4C(=O)O)c(OC(F)F)cc3o2)c1C [Example 28, ((6-(difluoromethoxy)-2-(3′-(6-(difluoromethoxy)-5-((oxetan-3-ylamino)methyl)benzo [d]oxazol-2-yl)-2,2′-dimethyl-[1,1′-biphenyl]-3-yl)benzo[d]oxazol-5-yl)methyl)-L-proline], the AUC [1] is reported as 5800 ng·h/mL, the Cmax [1] is reported as 1280 ng/mL and the Tmax [1] is reported as 1 h. For the same compound, the half-life [1] was 2.79 h and the IC50 (PD-1/PD-L1; numeric values) was 3.2 nM.
With Cc1c(-c2nc3cc(CNC[C@H]4CCCO4)c(OC(F)F)cc3o2)cccc1-c1cccc(-c2nc3cc(CN4CCC[C@H]4C(=O)O)c(OC(F)F)cc3o2)c1C [Example 29, ((6-(difluoromethoxy)-2-(3′-(6-(difluoromethoxy)-5-(((((R)-tetrahydrofuran-2-yl)methyl)amino)methyl)benzo[d]oxazol-2-yl)-2,2′-dimethyl-[1,1′-biphenyl]-3-yl)benzo[d]oxazol-5-yl)methyl)-L-proline] the AUC [1] was 42700 ng·h/mL, the Cmax [1] was 3720 ng/mL and the Tmax [1] was 1 h. For the same compound, the half-life [1] was 4.67 h and the IC50 (PD-1/PD-L1; numeric values) was 1.2 nM.
Compound Cc1c(-c2nc3cc(CN4CC[C@H]4CO)c(OC(F)F)cc3o2)cccc1-c1cccc(-c2nc3cc(CN4CCC[C@H]4C(=O)O)c(OC(F)F)cc3o2)c1C [Example 31, ((6-(difluoromethoxy)-2-(3′-(6-(difluoromethoxy)-5-(((S)-2-(hydroxymethyl)azetidin-1-yl)methyl)benzo[d]oxazol-2-yl)-2,2′-dimethyl-[1,1′-biphenyl]-3-yl)benzo[d]oxazol-5-yl)methyl)-L-proline] has an AUC [1] of 6600 ng·h/mL, a Cmax [1] of 1000 ng/mL and a Tmax [1] of 1 h. For the same compound, the half-life [1] was 9.81 h and the IC50 (PD-1/PD-L1; numeric values) was 0.5 nM.
Cc1c(-c2nc3cc(CN4CC(N(C)C)C4)c(OC(F)F)cc3o2)cccc1-c1cccc(-c2nc3cc(CN4CCC[C@H]4C(=O)O)c(OC(F)F)cc3o2)c1C [Example 33, ((6-(difluoromethoxy)-2-(3′-(6-(difluoromethoxy)-5-((3-(dimethylamino)azetidin-1-yl)methyl)benzo[d]oxazol-2-yl)-2,2′-dimethyl-[1,1′-biphenyl]-3-yl)benzo[d]oxazol-5-yl)methyl)-L-proline] showed an AUC [1] of 8920 ng·h/mL, a Cmax [1] of 727 ng/mL and a Tmax [1] of 4 h. For the same compound, the half-life [1] was 11 h and the IC50 (PD-1/PD-L1; numeric values) was 1.5 nM.
Work on Cc1c(-c2nc3cc(CN4CCC[C@H]4C(=O)O)c(OC(F)F)cc3o2)cccc1-c1cccc(-c2nc3cc(CN4CCCC4)c(F)c(F)c3n2CC(F)(F)F)c1C [Example 299, ((2-(3′-(6,7-difluoro-5-(pyrrolidin-1-ylmethyl)-1-(2,2,2-trifluoroethyl)-1H-benzo[d]imidazol-2-yl)-2,2′-dimethyl-[1,1′-biphenyl]-3-yl)-6-(difluoromethoxy)benzo[d]oxazol-5-yl)methyl)-L-proline] yielded a concentration at 0.5 h [2] of 27.9 ng/mL, a concentration at 2 h [2] of 212 ng/mL and a concentration at 4 h [2] of 89.2 ng/mL. For the same compound, the IC50 (PD-1/PD-L1; range symbols) was over 50 nM.
Compound Cc1nc(-c2cccc(-c3cccc(-c4nc5cc(CN6CCC[C@H]6C(=O)O)c(OC(F)F)cc5o4)c3C)c2C)oc1CN1CCCC1 [Example 304, ((6-(difluoromethoxy)-2-(2,2′-dimethyl-3′-(4-methyl-5-(pyrrolidin-1-ylmethyl)oxazol-2-yl)-[1,1′-biphenyl]-3-yl)benzo[d]oxazol-5-yl)methyl)-L-proline] has a concentration at 0.5 h [2] of 131 ng/mL, a concentration at 2 h [2] of 150 ng/mL and a concentration at 4 h [2] of 74.2 ng/mL. For the same compound, the IC50 (PD-1/PD-L1; numeric values) was 27 nM.
